In patent US6124269A, “2-Halo-6-O-substituted ketolide derivatives” (priority 1998, dated 2000):
Values after ≈ are worked out from the molar mass of the structure shown. Values joined by “and” are separate entries in the source; they are usually repeats but may differ in a detail not shown here. Equal values may be shown once.

Key:
Type in all cases: cell-based
[1] = system: Staphylococcus aureus ATCC 6538P; assay: In vitro agar dilution MIC, organism code AA; conditions: unit assumed
Protocol: (§1) Representative compounds of the present invention were assayed in vitro for antibacterial activity as follows: Twelve petri dishes containing successive aqueous dilutions of the test compound mixed with 10 mL of sterilized Brain Heart Infusion (BHI) agar (Difco 0418-01-5) were prepared. Each plate was inoculated with 1:100 (or 1:10 for slow-growing strains, such as Micrococcus and Streptococcus) dilutions of up to 32 different microorganisms, using a Steers replicator block. The inoculated plates were incubated at 35-37° C. for 20 to 24 hours. In addition, a control plate, using BHI agar containing no test compound, was prepared and incubated at the beginning and end of each test.
(§2) An additional plate containing a compound having known susceptibility patterns for the organisms being tested and belonging to the same antibiotic class as the test compound was also prepared and incubated as a further control, as well as to provide test-to-test comparability.
(§3) After incubation, each plate was visually inspected. The minimum inhibitory concentration (MIC) was defined as the lowest concentration of drug yielding no growth, a slight haze, or sparsely isolated colonies on the inoculum spot as compared to the growth control.

[2] = system: Staphylococcus aureus A5177; assay: In vitro agar dilution MIC, organism code BB; conditions: in µg/mL (unit assumed)
Protocol: as §1, §2, §3

[3] = system: Staphylococcus aureus A-5278; assay: In vitro agar dilution MIC, organism code CC; conditions: unit assumed
Protocol: as §1, §2, §3

[4] = system: Streptococcus pyogenes EES61; assay: In vitro agar dilution MIC, organism code LL; conditions: unit assumed
Protocol: as §1, §2, §3

[5] = system: Streptococcus pyogenes 930; assay: In vitro agar dilution MIC, organism code MM; conditions: unit assumed
Protocol: as §1, §2, §3

[6] = system: Streptococcus pyogenes PIU 2548; assay: In vitro agar dilution MIC, organism code NN; conditions: unit assumed
Protocol: as §1, §2, §3

[7] = system: Haemophilis influenzae DILL AMP R; assay: In vitro agar dilution MIC, organism code WW; conditions: unit assumed
Protocol: as §1, §2, §3

[8] = system: Streptococcus pneumoniae ATCC 6303; assay: In vitro agar dilution MIC, organism code XX; conditions: unit assumed
Protocol: as §1, §2, §3

[9] = system: Streptococcus pneumoniae 5979; assay: In vitro agar dilution MIC, organism code ZZ; conditions: unit assumed
Protocol: as §1, §2, §3

[10] = system: Streptococcus pneumoniae 5649; assay: In vitro agar dilution MIC, organism code ZZA; conditions: unit assumed
Protocol: as §1, §2, §3

[11] = system: Staphylococcus aureus CMX 642A; assay: In vitro agar dilution MIC, organism code DD; conditions: Table 1B, unit assumed
Protocol: as §1, §2, §3

[12] = system: Staphylococcus aureus NCTC10649M; assay: In vitro agar dilution MIC, organism code EE; conditions: Table 1B, unit assumed
Protocol: as §1, §2, §3

[13] = system: Staphylococcus aureus CMX 553; assay: In vitro agar dilution MIC, organism code FF; conditions: Table 1B, unit assumed
Protocol: as §1, §2, §3

[14] = system: Staphylococcus aureus 1775; assay: In vitro agar dilution MIC, organism code GG; conditions: Table 1B, unit assumed
Protocol: as §1, §2, §3

[15] = system: Staphylococcus epidermidis 3519; assay: In vitro agar dilution MIC, organism code HH; conditions: Table 1B, in µg/mL (unit assumed)
Protocol: as §1, §2, §3

[16] = system: Enterococcus faecium ATCC 8043; assay: In vitro agar dilution MIC, organism code II; conditions: Table 1B, unit assumed
Protocol: as §1, §2, §3

[17] = system: Streptococcus bovis A-5169; assay: In vitro agar dilution MIC, organism code JJ; conditions: Table 1B, unit assumed
Protocol: as §1, §2, §3

[18] = system: Streptococcus agalactiae CMX 508; assay: In vitro agar dilution MIC, organism code KK; conditions: Table 1B, unit assumed
Protocol: as §1, §2, §3

[19] = system: Micrococcus luteus ATCC 9341; assay: In vitro agar dilution MIC, organism code OO; conditions: Table 1B, unit assumed
Protocol: as §1, §2, §3

[20] = system: Micrococcus luteus ATCC 4698; assay: In vitro agar dilution MIC, organism code PP; conditions: Table 1B, in µg/mL (unit assumed)
Protocol: as §1, §2, §3

Escherichia coli JUHL = assay: In vitro agar dilution MIC, organism code QQ; conditions: Table 1B, in µg/mL (unit assumed)
Protocol: as §1, §2, §3

Escherichia coli SS = assay: In vitro agar dilution MIC, organism code RR; conditions: Table 1B, in µg/mL (unit assumed)
Protocol: as §1, §2, §3

Escherichia coli DC-2 = assay: In vitro agar dilution MIC, organism code SS; conditions: Table 1B, unit assumed
Protocol: as §1, §2, §3

Candida albicans CCH 442 = assay: In vitro agar dilution MIC, organism code TT; conditions: Table 1B, unit assumed
Protocol: as §1, §2, §3

[21] = system: Mycobacterium smegmatis ATCC 114; assay: In vitro agar dilution MIC, organism code UU; conditions: Table 1B, in µg/mL (unit assumed)
Protocol: as §1, §2, §3

[22] = system: Nocardia asteroides ATCC 9970; assay: In vitro agar dilution MIC, organism code VV; conditions: Table 1B, in µg/mL (unit assumed)
Protocol: as §1
as §2, with “comparability. Erythromycin A was used for this purpose.” for “comparability.”
as §3

[23] = system: Streptococcus pneumoniae GYR 1171; assay: In vitro agar dilution MIC, organism code YY; conditions: Table 1B, unit assumed
Protocol: as §1, §2, §3

CC[C@H]1OC(=O)[C@H](C)C(=O)[C@H](C)[C@@H](O[C@@H]2O[C@H](C)C[C@H](N(C)C)[C@H]2O)[C@](C)(OC)C[C@@H](C)C2=NCCN3C(=O)O[C@@]1(C)[C@H]3[C@H]2C [Standard (X is H), reference compound]
MIC ([1]; Table 1C): 0.2 µg/mL (≈ 0.314 µM)
MIC ([2]; Table 1C): 0.2
MIC ([3]; Table 1C): > 100 µg/mL
MIC ([4]; Table 1C): 0.02 µg/mL (≈ 0.0314 µM)
MIC ([5]; Table 1C): > 100 µg/mL
MIC ([6]; Table 1C): 0.39 µg/mL (≈ 0.611 µM)
MIC ([7]; Table 1C): 4 µg/mL (≈ 6.27 µM)
MIC ([8]; Table 1C): 0.06 µg/mL (≈ 0.0941 µM)
MIC ([9]; Table 1C): > 128 µg/mL
MIC ([10]; Table 1C): 0.5 µg/mL (≈ 0.784 µM)

CC[C@H]1OC(=O)C(C)(F)C(=O)[C@H](C)[C@@H](O[C@@H]2O[C@H](C)C[C@H](N(C)C)[C@H]2O)[C@](C)(OC)C[C@@H](C)C2=NCCN3C(=O)O[C@@]1(C)[C@H]3[C@H]2C (stereo partly drawn) [Example 1]
MIC ([1]; Table 1B): 0.1 µg/mL (≈ 0.152 µM)
MIC ([1]; Table 1C): 0.1 µg/mL (≈ 0.152 µM)
MIC ([2]; Table 1B): 0.1
MIC ([2]; Table 1C): 0.1
MIC ([3]; Table 1B): > 100 µg/mL
MIC ([3]; Table 1C): > 100 µg/mL
MIC [11]: 0.1 µg/mL (≈ 0.152 µM)
MIC [12]: 0.2 µg/mL (≈ 0.305 µM)
MIC [13]: 0.1 µg/mL (≈ 0.152 µM)
MIC [14]: > 100 µg/mL
MIC [15]: 0.2
MIC [16]: 0.05 µg/mL (≈ 0.0762 µM)
MIC [17]: 0.01 µg/mL (≈ 0.0152 µM)
MIC [18]: 0.02 µg/mL (≈ 0.0305 µM)
MIC ([4]; Table 1B): 0.01 µg/mL (≈ 0.0152 µM)
MIC ([4]; Table 1C): 0.03 µg/mL (≈ 0.0457 µM)
MIC ([5]; Table 1B): > 100 µg/mL
MIC ([5]; Table 1C): > 128 µg/mL
MIC ([6]; Table 1B): 0.2 µg/mL (≈ 0.305 µM)
MIC ([6]; Table 1C): 0.5 µg/mL (≈ 0.762 µM)
MIC [19]: 0.02 µg/mL (≈ 0.0305 µM)
MIC [20]: 0.2
MIC (Escherichia coli JUHL): > 50
MIC (Escherichia coli SS): 0.2
MIC (Escherichia coli DC-2): 25 µg/mL (≈ 38.1 µM)
MIC (Candida albicans CCH 442): > 100 µg/mL
MIC [21]: 0.2
MIC [22]: 0.05
MIC ([7]; Table 1B): 2 µg/mL (≈ 3.05 µM)
MIC ([7]; Table 1C): 2 µg/mL (≈ 3.05 µM)
MIC ([8]; Table 1B): 0.03 µg/mL (≈ 0.0457 µM)
MIC ([8]; Table 1C): 0.03 µg/mL (≈ 0.0457 µM)
MIC [23]: 0.03 µg/mL (≈ 0.0457 µM)
MIC ([10]; Table 1B): 0.5 µg/mL (≈ 0.762 µM)
MIC ([10]; Table 1C): 0.5 µg/mL (≈ 0.762 µM)

CC[C@H]1OC(=O)[C@H](C)C(=O)[C@H](C)[C@@H](O[C@@H]2O[C@H](C)C[C@H](N(C)C)[C@H]2O)[C@](C)(OC/C=C/c2cnc3ccccc3c2)C[C@@H](C)C(=O)[C@H](C)[C@H]2NC(=O)O[C@@]21C [Standard A, reference compound]
MIC ([4]; Table 1D): 0.03 µg/mL (≈ 0.0392 µM)
MIC ([5]; Table 1D): 1 µg/mL (≈ 1.31 µM)
MIC ([6]; Table 1D): 0.25 µg/mL (≈ 0.326 µM)
MIC ([7]; Table 1D): 2 µg/mL (≈ 2.61 µM)
MIC ([8]; Table 1D): 0.03 µg/mL (≈ 0.0392 µM)
MIC ([9]; Table 1D): 16 µg/mL (≈ 20.9 µM)
MIC ([10]; Table 1D): 0.25 µg/mL (≈ 0.326 µM)

CC[C@H]1OC(=O)[C@H](C)[C@@H](O[C@H]2C[C@@](C)(OC)[C@@H](O)[C@H](C)O2)[C@H](C)[C@@H](O[C@@H]2O[C@H](C)C[C@H](N(C)C)[C@H]2O)[C@](C)(O)C[C@@H](C)C(=O)[C@H](C)[C@@H](O)[C@]1(C)O [Ery. A, Erythromycin A, reference compound]
MIC ([1]; Table 1B): 0.2 µg/mL (≈ 0.273 µM)
MIC ([2]; Table 1B): 3.1 and 6.2
MIC ([3]; Table 1B): > 100 µg/mL
MIC [11]: 0.39 µg/mL (≈ 0.531 µM)
MIC [12]: 0.39 µg/mL (≈ 0.531 µM)
MIC [13]: 0.39 µg/mL (≈ 0.531 µM)
MIC [14]: > 100 µg/mL
MIC [15]: 0.39 and 0.2
MIC [16]: 0.05 µg/mL (≈ 0.0681 µM)
MIC [17]: 0.02 µg/mL (≈ 0.0273 µM)
MIC [18]: 0.05 µg/mL (≈ 0.0681 µM)
MIC ([4]; Table 1B): 0.02 µg/mL (≈ 0.0273 µM)
MIC ([5]; Table 1B): > 100 µg/mL
MIC [19]: 0.02 µg/mL (≈ 0.0273 µM)
MIC [20]: 0.2 and 0.39
MIC (Escherichia coli JUHL): > 100 and 50
MIC (Escherichia coli SS): 0.78 and 0.39
MIC (Escherichia coli DC-2): > 100 µg/mL
MIC (Candida albicans CCH 442): > 100 µg/mL
MIC [21]: 3.1 and 6.2
MIC [22]: 0.1 and 0.05
MIC ([7]; Table 1B): 4 µg/mL (≈ 5.45 µM)
MIC ([8]; Table 1B): 0.06 µg/mL (≈ 0.0818 µM)
MIC [23]: 0.06 µg/mL (≈ 0.0818 µM)
MIC ([10]; Table 1B): 16 µg/mL (≈ 21.8 µM)

CC[C@H]1OC(=O)[C@H](C)C(=O)[C@H](C)[C@@H](O[C@@H]2O[C@H](C)C[C@H](N(C)C)[C@H]2O)[C@](C)(OC/C=C/c2ccc3nccnc3c2)C[C@@H](C)C(=O)[C@H](C)[C@H]2NC(=O)O[C@@]21C [Standard C, reference compound]
MIC ([4]; Table 1D): 0.03 µg/mL (≈ 0.0391 µM)
MIC ([5]; Table 1D): 1 µg/mL (≈ 1.3 µM)
MIC ([6]; Table 1D): 0.25 µg/mL (≈ 0.326 µM)
MIC ([7]; Table 1D): 2 µg/mL (≈ 2.61 µM)
MIC ([8]; Table 1D): 0.015 µg/mL (≈ 0.0196 µM)
MIC ([9]; Table 1D): 64 µg/mL (≈ 83.4 µM)
MIC ([10]; Table 1D): 0.5 µg/mL (≈ 0.652 µM)
